The source of these data is US11072617B2, “Bicyclic sulfones and sulfoxides and methods of use thereof” (Genentech, Inc., priority 2017, dated 2021).

The assay concerns the target human RIP1 kinase domain (2-375) (Homo sapiens (Human), UniProt Q13546). Put plainly: RIP1 kinase inhibition biochemical assay (Transcreener ADP, fluorescence polarization). Conditions: Ki app from tight-binding Morrison equation; 50 nM enzyme, 50 uM ATP, 2 hours incubation. As to the method:
RIP1 Kinase Inhibition Assays (Biochemical Assay)
The compounds of the present invention were tested for their capacity to inhibit RIP1K activity as described below.
The ability of the receptor interacting protein kinase (RIPK1) to catalyze the hydrolysis of adenosine-5′-triphosphate (ATP) is monitored using the Transcreener ADP (adenosine-5′-diphosphate) assay (BellBrook Labs). Purified human RIP1 kinase domain (2-375) (50 nM) derived from a baculovirus-infected insect cell expression system is incubated with test compounds for 2 hours in 50 mM Hepes buffer (pH 7.5) containing 30 mM MgCl2, 1 mM dithiothreitol, 50 uM ATP, 0.002% Brij-35, and 0.5% dimethyl sulfoxide (DMSO). Reactions are quenched by the addition of 1× Bell Brooks Stop buffer B (20 mM Hepes (ph7.5), 40 mM ethylenediaminetetraacetic acid and 0.02% Brij-35) containing an additional 12 mM EDTA and 55 ug/mL ADP2 antibody and 4 nM ADP-AlexaFluor® 633 tracer. The tracer bound to the antibody is displaced by the ADP generated during the RIP1K reaction, which causes a decrease in fluorescence polarization that is measured by laser excitation at 633 nm with a FP microplate reader M1000. Fractional activity was plotted against test article concentration. Using Genedata Screener software (Genedata; Basel, Switzerland), the data were fit to the tight-binding apparent inhibition constant (Ki^app) Morrison equation [Williams, J. W. and Morrison, J. F. (1979) The kinetics of reversible tight-binding inhibition. Methods Enzymol 63: 437-67]. The following equation was used to calculate fractional activity and Ki^app:
[formula] where [E]T and [I]T are the total concentrations of active enzyme and test article, respectively.
Exemplary compounds of the present invention are provided in Table 1 along with their physiochemical characterization and in vitro RIP1 kinase inhibitory activity data. “Method” in the first column of each table refers to the synthetic method(s) used to prepare each compound as shown in the Examples above. In certain examples, chiral column retention times (min) are provided for certain stereoisomers. Unless otherwise specified, the stereochemistry shown in each structure represents relative configuration of a single stereoisomer, and absolute configuration (i.e., “R” and/or “S”) is arbitrarily assigned. In some embodiments, where the Method is described to include the separation of stereoisomers, a single stereoisomer of a compound of Table 1 is provided.
A general note: Fluorescence polarisation rises when a labelled molecule tumbles more slowly, as on binding a larger partner.

Bounds are passed on as bounds.

human RIP1 kinase domain (2-375), sequence (Q13546 2-375): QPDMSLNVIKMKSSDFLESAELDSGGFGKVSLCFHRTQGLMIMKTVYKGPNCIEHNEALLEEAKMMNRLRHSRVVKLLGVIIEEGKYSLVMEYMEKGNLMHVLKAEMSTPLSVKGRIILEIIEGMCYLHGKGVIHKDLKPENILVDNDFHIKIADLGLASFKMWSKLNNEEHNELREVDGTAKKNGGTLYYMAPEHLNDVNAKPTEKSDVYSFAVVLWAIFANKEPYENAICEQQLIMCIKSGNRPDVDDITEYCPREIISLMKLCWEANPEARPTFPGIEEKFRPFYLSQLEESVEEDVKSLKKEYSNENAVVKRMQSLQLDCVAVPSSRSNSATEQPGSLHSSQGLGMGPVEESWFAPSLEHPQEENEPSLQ

Compound `O=S(=O)(c1nc2n(n1)[C@H](c1cccc(F)c1F)C[C@@H]2F)C(F)F` (single isomer, unassigned) [Example 68] registered a Ki of 6 nM. Next, `O=S(=O)(c1nc2n(n1)[C@H](c1cc(F)cc(F)c1)C[C@@H]2F)C(F)F` (single isomer, unassigned) [Example 69]: < 5 nM. Next, `O=S(=O)(CF)c1nc2n(n1)[C@H](c1ccccc1)C[C@@H]2F` (single isomer, unassigned) [Example 72]: 23 nM; `[O-][S@@+](CF)c1nc2n(n1)[C@H](c1ccccc1)C[C@@H]2F` (single isomer, unassigned) [Example 73]: 3 nM. With `[O-][S@@+](CF)c1nc2n(n1)[C@H](c1ccccc1F)C[C@@H]2F` (single isomer, unassigned) [Example 74], the Ki is < 5 nM.

In turn, `[O-][S@+](CF)c1nc2n(n1)[C@H](c1ccccc1F)C[C@@H]2F` (single isomer, unassigned) [Example 75] yielded a Ki of 140 nM. Next, `[O-][S@@+](CF)c1nc2n(n1)[C@H](c1cccc(F)c1F)C[C@@H]2F` (single isomer, unassigned) [Example 76]: < 5 nM; `[O-][S@+](CF)c1nc2n(n1)[C@H](c1cccc(F)c1F)C[C@@H]2F` (single isomer, unassigned) [Example 77]: 280 nM; `[O-][S@@+](CF)c1nc2n(n1)[C@H](c1cc(F)ccc1F)C[C@@H]2F` (single isomer, unassigned) [Example 78]: < 5 nM. `[O-][S@+](CF)c1nc2n(n1)[C@H](c1cc(F)ccc1F)C[C@@H]2F` (single isomer, unassigned) [Example 79] returned a Ki of 190 nM. The value for `[O-][S@@+](CF)c1nc2n(n1)[C@H](c1c(F)cccc1F)C[C@@H]2F` (single isomer, unassigned) [Example 80] was < 5 nM. Turning to `[O-][S@+](CF)c1nc2n(n1)[C@H](c1c(F)cccc1F)C[C@@H]2F` (single isomer, unassigned) [Example 81], the Ki was 290 nM.

As to `[O-][S@@+](CF)c1nc2n(n1)[C@H](c1cccc(F)c1)C[C@@H]2F` (single isomer, unassigned) [Example 82], the Ki was < 5 nM. The value for `[O-][S@+](CF)c1nc2n(n1)[C@H](c1cccc(F)c1)C[C@@H]2F` (single isomer, unassigned) [Example 83] was 130 nM.

With `[O-][S@@+](CF)c1nc2n(n1)[C@H](c1cc(F)cc(F)c1)C[C@@H]2F` (single isomer, unassigned) [Example 84], the Ki is < 5 nM. Next, `[O-][S@+](CF)c1nc2n(n1)[C@H](c1cc(F)cc(F)c1)C[C@@H]2F` (single isomer, unassigned) [Example 85]: 180 nM; `[O-][S@@+](CF)c1nc2n(n1)[C@H](c1ccccc1Cl)C[C@@H]2F` (single isomer, unassigned) [Example 86]: < 5 nM; `[O-][S@+](CF)c1nc2n(n1)[C@H](c1ccccc1Cl)C[C@@H]2F` (single isomer, unassigned) [Example 87]: 100 nM. Consider `N#CCS(=O)(=O)c1nc2n(n1)[C@H](c1ccccc1)C[C@@H]2F` (single isomer, unassigned) [Example 88], for which the Ki came to 32 nM.

As to `N#CCSc1nc2n(n1)[C@H](c1ccccc1)C[C@@H]2F` (single isomer, unassigned) [Example 89], the Ki was determined as 10 nM. The value for `N#CCS(=O)(=O)c1cc2n(n1)[C@H](c1ccccc1)C[C@@H]2F` (single isomer, unassigned) [Example 90] was 8 nM; that for `N#CC[S@@+]([O-])c1cc2n(n1)[C@H](c1ccccc1)C[C@@H]2F` (single isomer, unassigned) [Example 91] was 150 nM. The value for `N#CC[S@+]([O-])c1cc2n(n1)[C@H](c1ccccc1)C[C@@H]2F` (single isomer, unassigned) [Example 92] was 19 nM.
